Test results: patent publication US20050165109A1, “Pharmaceutical composition with combined active agents and methods for using the same” (priority 2002, published 2005)

Tests used:
ob/ob mice [1] = assay: Plasma glucose in ob/ob mice, metformin/ciprofibrate, oral once a day for 4 days; type: in vivo; conditions: for Effect on plasma glucose concentrations (in words) / Glucose levels Day 4: ob/ob mice; for Effect on plasma glucose concentrations (in words): 4 days oral, versus vehicle; for Difference between Vehicle & treatment: plasma glucose Day 4, ob/ob mice; for Difference between Vehicle & treatment / Glucose levels Day 4: metformin 90 mg/kg, ciprofibrate 2.5 mg/kg; for Glucose levels Day 4: plasma glucose, oral once a day for 4 days
Procedure: (§1) Experiment was conducted in ob/ob mice, an animal model of diabetes. Male, 8-9 week old ob/ob mice were purchased from Jackson Laboratory (Bar Harbor, Me.) and housed in a temperature and humidity controlled room with 12 hour light (6 am to 6 pm)/dark (6 pm-6 am) cycle and ad libitum of water and regular Purina chow. Animals were screened for plasma glucose levels and randomized into groups for experiments.
Experiment was conducted in ob/ob mice. The experimental condition was the same as Working Example 1.
In this experiment, 8 animals were orally dosed with vehicle, metformin (90 mg/kg), ciprofibrate (2.5 mg/kg), or combination of metformin (90 mg/kg) and ciprofibrate (2.5 mg/kg) once a day for 4 days. Plasma glucose concentrations were determined at the end of the experiment.

[2] = literature: WO 99/40904, U.S. Pat. No. 5,304,575, Vuorinen-Markkola 1993, Hernandez-Mijares 2000; cited from earlier work
ob/ob mice [3] = assay: Plasma glucose in ob/ob mice, metformin/gemfibrozil, oral once a day for 3 days; type: in vivo; conditions: for Effect on plasma glucose concentrations (in words) / Glucose levels Day 3: ob/ob mice; for Effect on plasma glucose concentrations (in words): 3 days oral, versus vehicle; for Difference between Vehicle & treatment: plasma glucose Day 3, ob/ob mice; for Difference between Vehicle & treatment / Glucose levels Day 3: metformin 90 mg/kg, gemfibrozil 100 mg/kg; for Glucose levels Day 3: plasma glucose, oral once a day for 3 days
Procedure: as §1
In this experiment, 8 animals were orally dosed with vehicle, metformin (90 mg/kg), gemfibrozil (100 mg/kg), or combination of metformin (90 mg/kg) and gemfibrozil (100 mg/kg) once a day for 3 days. Plasma glucose concentrations were determined at the end of the experiment.

Row | Compound | Effect on plasma glucose concentrations (in words) (ob/ob mice [1]) | Effect on plasma glucose concentrations (in words) (ob/ob mice [1]; listed as ciprofibrate) | Difference between Vehicle & treatment (ob/ob mice [1]) | Glucose levels Day 4 (ob/ob mice [1]) | Glucose-lowering effect (in words) [2] | Effect on plasma glucose concentrations (in words) (ob/ob mice [3]) | Effect on plasma glucose concentrations (in words) (ob/ob mice [3]; listed as gemfibrozil) | Difference between Vehicle & treatment (ob/ob mice [3]) | Glucose levels Day 3 (ob/ob mice [3])
1 | CC(C)(Oc1ccc(C2CC2(Cl)Cl)cc1)C(=O)O (stereo not shown) [Ciprofibrate, ciprofibrate] | did not have significant effect on glucose levels | minimum effect on reducing plasma glucose and it was not statistically significant | -32.2 mg/dL | 351.1 ± 23.1 mg/dL | lack of glucose-lowering effect |  |  |  | 
2 | Cc1ccc(C)c(OCCCC(C)(C)C(=O)O)c1 [Gemfibrozil, gemfibrozil] |  |  |  |  | lack of glucose-lowering effect | did not have significant effect on glucose level | minimum reduction of plasma glucose and it was not statistically significant | -57.1 mg/dL | 349.7 ± 39.0 mg/dL
3 | CN(C)C(=N)N=C(N)N [Metformin, metformin] | significantly reduced plasma glucose concentrations |  | -84.1 mg/dL | 299.2 ± 24.9 mg/dL |  | significantly reduced plasma glucose concentrations |  | -88.2 mg/dL | 318.6 ± 29.3 mg/dL
